{
  "source": "patent US9095534B2",
  "about": "“Intermittent dosing of nitric oxide gas” (SENSORMEDICS CORPORATION, priority 2004, dated 2015)",
  "key": {"[1]": {"tested_on": "Mycobacteria", "experiment": "Sensitivity of various microorganisms to NO gas damage", "type": "cell-based", "conditions": "relative to other microorganisms studied", "description": "(§1) Additional studies were performed to test the hypothesis that the effect of NO gas in killing microorganisms is related to thiol function. […] This may be due to Mycobacteria having an exceptional thiol, mycothiol, that maintains the redox balance in the cell and protects the cell from nitrosative and oxidative stress. In order to test this hypothesis, sensitivities to NO gas was compared between mycothiol-deficient Mycobacterium smegmatis Mutant MshA to its wild type counterpart, mc^2155 by exposing both strains to 200 ppm of NO gas. MshA is an enzyme needed in mycothiol biosynthesis."}, "[2]": {"tested_on": "P. aeruginosa (ATCC #27853)", "experiment": "Survival of bacteria under cycled high/low NO gas exposure (cfu/ml)", "type": "cell-based", "conditions": "160 ppm for 30 minutes then 20 ppm for 3.5 hours, cycled every 4 hours for 24 hours; compared to air; FIG. 7", "description": "(§2) The effectiveness of the intermittent nigh dose delivery of […] oxide gas in combating microorganisms was tested and verified. Briefly, the experimental methods were as follows. Inoculums of varying bacteria was prepared to a suspension of 2.5×10^8 cfu/ml, and diluted 1:1000 in sterile normal saline. Three milliliters of the inoculums were used per well in a sterile culture place. Exposure of the inoculums were performed in an exposure chamber, which has been described for example, in Gliafarri, A. et al., “A direct nitric oxide gas delivery system for bacterial and mammalian cell cultures,” Nitric Oxide. 12(3):129-40 (May 2005), which is hereby incorporated by reference as if fully set forth herein. The inoculums were exposed to 160 ppm of NO gas at a flow rate of 2.5 liters per minute for 30 minutes followed by exposure to 20 ppm of NO gas for 3.5 hours. The exposure to high and low concentrations of NO gas was repeatedly cycled every 4 hours for 24 hours. At various times (e.g., 0, 4, 8, and 12 hours), samples were taken and plated to determine the survivability of the bacteria as determined by counting cfu/ml."}, "[3]": {"tested_on": "E. coli", "experiment": "Survival of bacteria under cycled high/low NO gas exposure (cfu/ml)", "type": "cell-based", "conditions": "160 ppm for 30 minutes then 20 ppm for 3.5 hours, cycled every 4 hours for 24 hours; compared to air; FIG. 9", "description": "as §2"}, "[4]": {"tested_on": "P. aeruginosa (clinical strain from Cystic Fibrosis)", "experiment": "Survival of bacteria under cycled high/low NO gas exposure (cfu/ml)", "type": "cell-based", "conditions": "160 ppm for 30 minutes then 20 ppm for 3.5 hours, cycled every 4 hours for 24 hours; compared to air; FIG. 8", "description": "as §2"}, "[5]": {"tested_on": "S. aureus (ATCC #25923)", "experiment": "Survival of bacteria under cycled high/low NO gas exposure (cfu/ml)", "type": "cell-based", "conditions": "160 ppm for 30 minutes then 20 ppm for 3.5 hours, cycled every 4 hours for 24 hours; compared to air; FIG. 6", "description": "as §2"}, "[6]": {"tested_on": "mycothiol in wild type M. smegmatis", "experiment": "Mycothiol level by HPLC after exposure to NO gas", "type": "cell-based, Mycobacterium smegmatis", "conditions": "400 ppm NO gas, compared to exposure to air, FIG. 11", "description": "Further experiments were conducted to assay and measure the mycothiol level using HPLC in wild type M. smegmatis after exposure to 400 ppm NO gas and were compared to mycothiol level after exposure to air."}, "[7]": {"tested_on": "mycothiol-deficient Mycobacterium smegmatis Mutant MshA", "experiment": "Survival of mycothiol-deficient mutant versus wild type on exposure to NO gas", "type": "cell-based", "conditions": "200 ppm NO gas; FIG. 10", "description": "as §1"}},
  "data": [
    {"compound": "[N]=O", "note": "[nitric oxide]", "values": [
      {"measurement": "sensitivity of Mycobacteria to NO gas damage", "setting": "[1]", "result": "less sensitive to NO gas damage"},
      {"measurement": "survival of P. aeruginosa (ATCC #27853)", "setting": "[2]", "result": "effective method of killing the bacteria"},
      {"measurement": "survival of E. coli", "setting": "[3]", "result": "effective method of killing the bacteria"},
      {"measurement": "survival of P. aeruginosa (clinical strain from Cystic Fibrosis)", "setting": "[4]", "result": "effective method of killing the bacteria"},
      {"measurement": "survival of S. aureus (ATCC #25923)", "setting": "[5]", "result": "effective method of killing the bacteria"},
      {"measurement": "level of mycothiol in wild type M. smegmatis", "setting": "[6]", "result": "reduced compared to exposure to air"},
      {"measurement": "sensitivity of MshA mutant to NO gas versus wild type mc^2155", "setting": "[7]", "result": "more sensitive to NO gas than its wild type counterpart"},
      {"measurement": "time to kill MshA mutant versus wild type mc^2155", "setting": "[7]", "result": "killed in less time than its wild type counterpart"}
    ]}
  ]
}
